These results are taken from patent publication US20180296453A1, “Oral Care Product and Methods of Use and Manufacture Thereof” (Colgate-Palmolive Company, priority 2008, published 2018).

The subject of one data set is S. sanguis. Briefly: Ammonia production by S. sanguis at pH 4.0. It is filed as cell-based. Conditions: 5 millimolar, pH 4.0, 0.1% sucrose, 37° C., 30 minutes. Here is the method: An overnight culture of S. sanguis was grown at 37° C. in trypticase soy broth (Becton Dickinson, Sparks, Md.). The culture was centrifuged at 5,000 rpm for 5 minutes at 1 milliliter at a time into preweighed tubes in order to accumulate approximately 5 milligrams of wet pellet weight. The pellet was then resuspended into 20 millimolar potassium phosphate buffer (JT Baker, Phillipsburg, N.J.), pH 4.0, to simulate a stressed environment for the bacterial cell where ammonia would be produced for survival. The final concentration was 5 milligram per milliliter. To this final concentration, a 5 millimolar final concentration of L-arginine, L-citrulline, or L-ornithine was added along with a 0.1% final concentration of sucrose (VWR, West Chester, Pa.). This mixture was then incubated at 37° C. in a shaking water bath for 30 minutes before ammonia production was determined.
In order to analyze for ammonia, an Ammonia Assay kit was used from Diagnostic Chemicals Limited (Oxford, Conn.). The intended use of this specific kit is for the in vitro quantification of ammonia in plasma, but the procedure was modified in order to determine and quantify the ammonia production in plaque and/or bacteria.

For data set [1] the following is noted: cited from earlier work.

Turning to `N=C(N)NCCC[C@H](N)C(=O)O` [L-Arginine, L-arginine], the Ammonia was found to be 1.06 ppm with S. sanguis (Mean of 6 trials); 0.509 ppm in the data set on S. sanguis (Trial 1); 0.866 ppm in the data set on S. sanguis (Trial 2); 2.20 ppm in the data set on S. sanguis (Trial 3); 1.62 ppm in the data set on S. sanguis (Trial 4); 0.5 ppm with S. sanguis (Trial 5). This molecule also gave an Ammonia in the data set with S. sanguis (Trial 6) of 0.679 ppm.
Turning to `NC(=O)NCCC[C@H](N)C(=O)O` [L-Citrulline, L-citrulline], the Ammonia with S. sanguis (Mean of 6 trials) was found to be 0.951 ppm; with S. sanguis (Trial 1), 0.185 ppm; in the data set with S. sanguis (Trial 2) it was 0.346 ppm; in the data set on S. sanguis (Trial 3) it was 0.332 ppm; with S. sanguis (Trial 4), 0.194 ppm; with S. sanguis (Trial 5), 0.226 ppm. The molecule further showed an Ammonia in the data set with S. sanguis (Trial 6) of 0.951 ppm.
Consider `NCCC[C@H](N)C(=O)O` [L-Ornithine, L-ornithine], for which the Ammonia was determined as 0.134 ppm with S. sanguis (Mean of 6 trials); 0.185 ppm in the data set with S. sanguis (Trial 1); 0.260 ppm with S. sanguis (Trial 2); 0.047 ppm in the data set on S. sanguis (Trial 3); 0.0 ppm in the data set with S. sanguis (Trial 4); 0.181 ppm in the data set on S. sanguis (Trial 5). Further, in the data set with S. sanguis (Trial 6), the Ammonia turned out to be 0.135 ppm.
As to `Oc1cc(Cl)ccc1Oc1ccc(Cl)cc1Cl` [triclosan, 5-chloro-2-(2,4-dichlorophenoxy)phenol], the “solubility in water (in words)” value in data set [1] is reported as “only slightly soluble in water”.
